Data reported in ChEMBL document CHEMBL5360666, “Inhibition Profiles of Some Novel Sulfonamide-Incorporated α-Aminophosphonates on Human Carbonic Anhydrases” (ACS Med Chem Lett, 2023).

Columns and labels:
[1] = target: Carbonic anhydrase 12 (Homo sapiens, UniProt O43570); experiment: Inhibition of human carbonic anhydrase 12 assessed as inhibition constant incubated for 1 hr prior to testing by phenol red based stopped-flow CO2 hydration assay
[2] = target: Carbonic anhydrase 9 (Homo sapiens, UniProt Q16790); experiment: Inhibition of human carbonic anhydrase 9 assessed as inhibition constant incubated for 1 hr prior to testing by phenol red based stopped-flow CO2 hydration assay
[3] = target: Carbonic anhydrase 1 (Homo sapiens, UniProt P00915); experiment: Inhibition of human carbonic anhydrase 1 assessed as inhibition constant incubated for 1 hr prior to testing by phenol red based stopped-flow CO2 hydration assay
Sequence of Carbonic anhydrase 1 (P00915 whole entry): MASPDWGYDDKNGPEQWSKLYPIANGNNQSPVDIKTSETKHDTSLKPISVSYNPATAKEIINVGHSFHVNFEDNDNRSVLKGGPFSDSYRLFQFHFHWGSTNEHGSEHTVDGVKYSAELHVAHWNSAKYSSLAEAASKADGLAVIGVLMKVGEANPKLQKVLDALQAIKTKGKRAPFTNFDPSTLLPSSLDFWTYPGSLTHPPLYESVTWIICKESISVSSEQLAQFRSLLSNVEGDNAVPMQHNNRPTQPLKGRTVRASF

Sequence of Carbonic anhydrase 12 (O43570 whole entry): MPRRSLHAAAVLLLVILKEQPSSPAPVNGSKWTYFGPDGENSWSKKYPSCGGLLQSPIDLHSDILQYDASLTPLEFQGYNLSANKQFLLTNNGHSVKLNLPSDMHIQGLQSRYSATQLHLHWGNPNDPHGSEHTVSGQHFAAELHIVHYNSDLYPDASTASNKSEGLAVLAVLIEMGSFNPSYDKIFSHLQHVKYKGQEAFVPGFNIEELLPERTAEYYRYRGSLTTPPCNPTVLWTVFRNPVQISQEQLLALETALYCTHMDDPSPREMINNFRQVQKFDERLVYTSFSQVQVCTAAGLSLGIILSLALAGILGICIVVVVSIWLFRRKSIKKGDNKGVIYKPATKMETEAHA

Row | SMILES | Ki [1] | Ki [2] | Ki [3]
1 | COc1ccc(CNc2ccc(S(N)(=O)=O)cc2)cc1 | 11.2 nM | 883 nM | > 50000 nM
2 | CCOP(=O)(OCC)C(Nc1ccc(S(N)(=O)=O)cc1)c1ccc(Cl)cc1 (stereo not drawn) |  | 142 nM | 
3 | CCOP(=O)(OCC)C(Nc1ccc(S(N)(=O)=O)cc1)c1cccc(F)c1 (stereo not drawn) |  | 39.1 nM | 
4 | CCOP(=O)(OCC)C(Nc1ccc(S(N)(=O)=O)cc1)c1ccc(OC)c(OC)c1 (stereo not drawn) |  | 118 nM | 
5 | CCOP(=O)(OCC)C(Nc1ccc(S(N)(=O)=O)cc1)c1ccc(C)cc1 (stereo not drawn) |  | 147 nM | 
6 | CCOP(=O)(OCC)C(Nc1ccc(S(N)(=O)=O)cc1)c1c(Br)cccc1OC (stereo not drawn) |  | 346 nM | 
7 | CCOP(=O)(OCC)C(Nc1ccc(S(N)(=O)=O)cc1)c1ccc(Br)cc1 (stereo not drawn) |  | 154 nM | 
8 | CCOP(=O)(OCC)C(Nc1ccc(S(N)(=O)=O)cc1)c1cc(OC)c(OC)cc1OC (stereo not drawn) |  | 249 nM | 
9 | CCOP(=O)(OCC)C(Nc1ccc(S(N)(=O)=O)cc1)c1cc(OC)ccc1OC (stereo not drawn) |  | 470 nM | 
10 | CCOP(=O)(OCC)C(Nc1ccc(S(N)(=O)=O)cc1)c1ccc(OC)cc1 (stereo not drawn) |  | 140 nM | 
11 | CCOP(=O)(OCC)C(Nc1ccc(S(N)(=O)=O)cc1)c1ccccc1[N+](=O)[O-] (stereo not drawn) |  | 293 nM | 

Continued by falling Ki [2], values first:

Row | Ki [1] | Ki [2] | Ki [3] | SMILES
12 |  | 225 nM |  | CCOP(=O)(OCC)C(Nc1ccc(S(N)(=O)=O)cc1)c1ccc(-c2ccccc2)cc1 (stereo not drawn)
13 |  | 91.6 nM |  | CCOP(=O)(OCC)C(Nc1ccc(S(N)(=O)=O)cc1)c1ccc(F)cc1 (stereo not drawn)
14 |  | 80.2 nM |  | CCOP(=O)(OCC)C(Nc1ccc(S(N)(=O)=O)cc1)c1ccc(SC)cc1 (stereo not drawn)
15 |  | 61.3 nM |  | CCOP(=O)(OCC)C(Nc1ccc(S(N)(=O)=O)cc1)c1cccc(Br)c1 (stereo not drawn)
16 |  | 26.7 nM |  | CCOP(=O)(OCC)C(Nc1ccc(S(N)(=O)=O)cc1)c1ccccc1F (stereo not drawn)
